Here are results for two molecules from ChEMBL document CHEMBL4837223, “Anti-angiogenesis Function of Ononin via Suppressing the MEK/Erk Signaling Pathway” (J Nat Prod, 2021).

The source made the active and inactive calls. No cut-off for these calls is given here.

The test system of data set [1] is HUVEC. As to the kind of experiment: Induction of apoptosis in VEGF-stimulated HUVEC cells assessed as increase in early apoptotic cells at 250 nM measured after 48 hrs by AnnexinV-FITC/PI staining based flow cytometry. The class given is functional, cell-based. Particulars: Homo sapiens. (In general: A flow cytometer gives signals particle by particle.)
Data set [2] relates to HUVEC. As to the kind of experiment: Induction of apoptosis in VEGF-stimulated HUVEC cells assessed as increase in late apoptotic cells at 250 nM measured after 48 hrs by AnnexinV-FITC/PI staining based flow cytometry. The class given is functional, cell-based. The note with it: Homo sapiens.
The subject of data set [3] is HUVEC. In words: Induction of apoptosis in VEGF-stimulated HUVEC cells assessed as increase in cleaved caspase-9 protein expression at 250 nM measured after 48 hrs by western blot analysis. Type of data set: functional, cell-based. Particulars: Homo sapiens. For orientation: Immunoblotting shows a protein as a band on a membrane.
In data set [4] the test system is HUVEC. As to the kind of experiment: Induction of apoptosis in VEGF-stimulated HUVEC cells assessed as mitochondrial membrane potential alteration at 250 nM measured after 48 hrs by JC-1 staining based flow cytometry. Type of data set: functional, cell-based. The note with it: Homo sapiens.
Data set [5] concerns HUVEC. In words: Induction of apoptosis in VEGF-stimulated HUVEC cells assessed as increase in Bax/Bcl2 ratio at 250 nM measured after 48 hrs by western blot analysis. The class given is functional, cell-based. Particulars: Homo sapiens.
The test system of data set [6] is HUVEC. As to the kind of experiment: Induction of apoptosis in VEGF-stimulated HUVEC cells assessed as increase in cleaved caspase-3 protein expression at 250 nM measured after 48 hrs by western blot analysis. The class given is functional, cell-based. Particulars: Homo sapiens.
Data set [7] concerns the target Dual specificity mitogen-activated protein kinase kinase; MEK1/2 (Homo sapiens) (UniProt P36507+Q02750). As to the kind of experiment: Inhibition of MEK1/2 in VEGF-stimulated HUVEC cells assessed as reduction in phosphorylated MEK1/2 level at 5 uM incubated for 48 hrs by immunoblot analysis. The class given is cell-based.
In data set [8] the test system is HUVEC. As to the kind of experiment: Downregulation of HIF-1alpha expression in VEGF-stimulated HUVEC cells at 5 uM measured after 48 hrs by western blot analysis. The class given is functional, cell-based. The note with it: Homo sapiens.
Data set [9] deals with HUVEC. As to the kind of experiment: Effect on HIF-1beta expression in VEGF-stimulated HUVEC cells at 5 uM measured after 48 hrs by western blot analysis. The class given is functional, cell-based. The note with it: Homo sapiens.
Data set [10] deals with HUVEC. As to the kind of experiment: Cytotoxicity against HUVEC cells assessed as reduction in cell vaibility at 5 uM incubated for 48 hrs by MTT assay. The class given is cell-based. The note with it: human. (In general: Tetrazolium assays rely on reduction of a dye to a coloured formazan, in cell work by metabolically active cells.)
In data set [11] the test system is HUVEC. As to the kind of experiment: Inhibition of VEGFR2 expression in VEGF-induced HUVEC cells at 5 uM incubated for 48 hrs by DAPI staining based confocal microscopy. The class given is functional, cell-based. The note with it: Homo sapiens.
The subject of data set [12] is HUVEC. In words: Downregulation of HIF-1alpha expression in VEGF-stimulated HUVEC cells at 5 uM measured after 48 hrs by DAPI staining based confocal microscopy. Type of data set: functional, cell-based. Particulars: Homo sapiens.
For data set [13], the system named is HUVEC. In words: Antiangiogenic activity against VEGF-induced HUVEC cells assessed as reduction in cell migration at 5 uM measured after 48 hrs by Transwell assay. Type of data set: functional, cell-based. The note with it: Homo sapiens.
Data set [14] relates to HUVEC. As to the kind of experiment: Antiangiogenic activity against VEGF-induced HUVEC cells assessed as reduction in wound healing at 5 uM measured after 48 hrs by scratch-wound healing assay. The class given is functional, cell-based. The note with it: Homo sapiens.
For data set [15], the system named is HUVEC. As to the kind of experiment: Induction of apoptosis in VEGF-stimulated HUVEC cells assessed as increase in cleaved caspase-3 protein expression at 5 uM measured after 48 hrs by western blot analysis. Type of data set: functional, cell-based. Particulars: Homo sapiens.
For data set [16], the system named is HUVEC. As to the kind of experiment: Antiangiogenic activity against VEGF-stimulated HUVEC cells assessed as reduction in number of sprouting tubules at 5 uM measured after 48 hrs by Matrigel assay based microscopic analysis. Type of data set: functional, cell-based. The note with it: Homo sapiens.
Data set [17] relates to HUVEC. In words: Induction of apoptosis in VEGF-stimulated HUVEC cells assessed as increase in Cytochrome c protein expression at 5 uM measured after 48 hrs by DAPI staining based confocal microscopy. The class given is functional, cell-based. The note with it: Homo sapiens.
For data set [18], the target named is Mitogen-activated protein kinase; ERK1/ERK2 (Homo sapiens) (UniProt P27361+P28482). As to the kind of experiment: Inhibition of ERK1/2 in VEGF-stimulated HUVEC cells assessed as reduction in phosphorylated […] at 5 uM incubated for 48 hrs by immunoblot analysis. The class given is cell-based.
Mitogen-activated protein kinase; ERK1/ERK2 (Homo sapiens), sequence (P27361 whole entry, looked up): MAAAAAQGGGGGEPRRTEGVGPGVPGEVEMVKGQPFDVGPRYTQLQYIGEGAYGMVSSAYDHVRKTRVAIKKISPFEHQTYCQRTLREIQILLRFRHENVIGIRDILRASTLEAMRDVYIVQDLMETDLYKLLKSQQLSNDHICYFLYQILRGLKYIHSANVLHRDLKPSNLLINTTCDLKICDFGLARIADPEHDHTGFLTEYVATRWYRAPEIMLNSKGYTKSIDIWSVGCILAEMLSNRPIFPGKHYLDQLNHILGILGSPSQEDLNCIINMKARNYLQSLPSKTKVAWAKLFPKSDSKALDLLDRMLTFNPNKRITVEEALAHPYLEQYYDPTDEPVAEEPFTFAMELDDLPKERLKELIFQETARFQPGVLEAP
Mitogen-activated protein kinase; ERK1/ERK2 (Homo sapiens), sequence (P28482 whole entry, looked up): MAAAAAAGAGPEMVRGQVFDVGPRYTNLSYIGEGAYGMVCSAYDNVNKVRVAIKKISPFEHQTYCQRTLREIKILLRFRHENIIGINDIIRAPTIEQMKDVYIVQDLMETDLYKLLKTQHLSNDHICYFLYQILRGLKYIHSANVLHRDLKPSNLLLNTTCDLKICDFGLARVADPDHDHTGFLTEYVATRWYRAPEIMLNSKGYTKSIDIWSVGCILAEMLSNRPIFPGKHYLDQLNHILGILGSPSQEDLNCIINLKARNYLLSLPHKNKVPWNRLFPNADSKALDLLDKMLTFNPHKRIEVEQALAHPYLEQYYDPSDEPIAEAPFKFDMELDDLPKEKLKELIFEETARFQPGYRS
The subject of data set [19] is HUVEC. As to the kind of experiment: Induction of apoptosis in VEGF-stimulated HUVEC cells at 5 uM measured after 48 hrs by AnnexinV-FITC/PI staining based flow cytometry. The class given is functional, cell-based. Particulars: Homo sapiens.
Data set [20] relates to HUVEC. As to the kind of experiment: Induction of apoptosis in VEGF-stimulated HUVEC cells assessed as increase in cleaved caspase-9 protein expression at 5 uM measured after 48 hrs by western blot analysis. The class given is functional, cell-based. The note with it: Homo sapiens.
Data set [21] deals with HUVEC. In words: Induction of apoptosis in VEGF-stimulated HUVEC cells assessed as mitochondrial membrane potential alteration at 5 uM measured after 48 hrs by JC-1 staining based flow cytometry. Type of data set: functional, cell-based. Particulars: Homo sapiens.
The subject of data set [22] is HUVEC. As to the kind of experiment: Induction of apoptosis in VEGF-stimulated HUVEC cells assessed as increase in Bax/Bcl2 ratio at 5 uM measured after 48 hrs by western blot analysis. The class given is functional, cell-based. Particulars: Homo sapiens.

Dual specificity mitogen-activated protein kinase kinase; MEK1/2 (Homo sapiens), sequence (P36507 whole entry, looked up): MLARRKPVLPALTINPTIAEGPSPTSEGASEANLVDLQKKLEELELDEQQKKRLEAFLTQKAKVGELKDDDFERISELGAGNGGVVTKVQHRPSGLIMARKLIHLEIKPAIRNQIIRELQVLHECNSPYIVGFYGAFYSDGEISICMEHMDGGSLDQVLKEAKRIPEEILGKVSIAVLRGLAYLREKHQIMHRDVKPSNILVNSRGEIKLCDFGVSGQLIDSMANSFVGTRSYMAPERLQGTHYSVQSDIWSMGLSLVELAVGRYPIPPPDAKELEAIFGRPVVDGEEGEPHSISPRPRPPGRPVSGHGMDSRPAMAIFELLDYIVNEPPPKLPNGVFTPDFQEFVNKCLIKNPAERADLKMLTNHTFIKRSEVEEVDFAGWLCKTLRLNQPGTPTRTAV
Dual specificity mitogen-activated protein kinase kinase; MEK1/2 (Homo sapiens), sequence (Q02750 whole entry, looked up): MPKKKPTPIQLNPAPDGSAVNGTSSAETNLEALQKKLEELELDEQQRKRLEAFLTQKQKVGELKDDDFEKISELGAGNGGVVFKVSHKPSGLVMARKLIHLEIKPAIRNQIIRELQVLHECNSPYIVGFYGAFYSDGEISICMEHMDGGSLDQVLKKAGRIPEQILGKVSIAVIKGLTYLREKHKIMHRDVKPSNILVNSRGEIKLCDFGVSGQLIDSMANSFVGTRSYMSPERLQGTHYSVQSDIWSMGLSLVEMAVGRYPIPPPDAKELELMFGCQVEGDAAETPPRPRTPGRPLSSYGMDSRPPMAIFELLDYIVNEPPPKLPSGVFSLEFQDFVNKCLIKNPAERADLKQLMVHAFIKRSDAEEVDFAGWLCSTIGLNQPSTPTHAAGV

As to `CN[C@@H]1C[C@H]2O[C@@](C)([C@@H]1OC)n1c3ccccc3c3c4c(c5c6ccccc6n2c5c31)C(=O)NC4`, the outcome in data set [1], in data set [2], in data set [3], in [4], in data set [5] and in data set [6] was Active.
Regarding `COc1ccc(-c2coc3cc(O[C@@H]4O[C@H](CO)[C@@H](O)[C@H](O)[C@H]4O)ccc3c2=O)cc1` [ONONIN], the inhibition entry in data set [7], in data set [8], in data set [11], in data set [12] and in data set [18] was “Active” throughout. For the same molecule, in data set [9], the result was inactive. Besides, the Activity result in data set [10] was “Non-Toxic”. The result in data set [13], in data set [14], in data set [15], in data set [16], in [17] and in data set [19] was Active. The result in data set [20], in [21] and in data set [22] was Active.
